Source: patent US9062095B2, “Mutant double cyclized receptor peptides inhibiting β1-adrenoceptor antibodies” (JULIUS-MAXIMILIANS-UNIVERSTITAT-WURZBURG, priority 2007, dated 2015)
Positions of bridges follow the written chain, without caps; N, C: chain ends.

What was measured:
[1] = test system: anti-beta1-ECII antibody-secreting cells (ASC); experiment: ELISPOT-assay with B-cells from bone marrow or spleen of prophylactically treated rats; assay type: in vivo, rat; settings: prophylactically treated versus untreated immunized rats, n=3-4 (FIG. 13)
Description: Cys/Ser, horizontally hatched columns). For the assays, ELIspot plates were coated overnight with the specific antigen (GST/beta1-ECII-FP) in 0.05 mol/1 Tris buffer, pH 9.4.; then the plates were washed 3 times and blocked with BSA for 3 hours at 37° C. Subsequently, the plates were incubated overnight at 37° C. with B-cells from either spleen or bone marrow (cultured in RPMI 1640/X-VIVO-15 medium supplemented with 10% fetal calf serum (FCS)) with 1×10^6 to 1×10^3 cells per well. After 12 hours the B-cells were discarded and the plates with the B-cell secreted IgG bound were washed several times (PBS/0.5° A) Tween) before the addition of alkaline phos-phatase conjugated secondary anti-rat IgG (0.3 μg/ml) to detect bound rat IgG. Then the plates were incubated for another 3 hours at 37° C., washed several times with PBS/0.5% Tween, and developed using LMP/BICP 5:1 (1 ml per well; “LMP” means low melting agarose, and “BICP” means 5-bromo-4-chloro-3-indolyl phosphate p-toluidine salt, a blue-colored dye) allowing for a quantification of the blue spots obtained, with each spot representing an antigen-specific IgG secreting spleen or bone-marrow cell.
This finding was confirmed by ELIspot analysis of bone marrow and spleen cell preparations of selected cyclopeptide-treated versus untreated immunized rats (n=3).

[2] = test system: rats with antibody-induced immune-cardiomyopathy; experiment: in vivo therapy study: cardioprotective effect (echocardiography, hemodynamics, organ weights); set-up: species or system rat
Excerpt: FIG. 17.A is a diagram showing the time course (month 0 to 20) of the internal end-systolic and end-diastolic left ventricular diameters (LVES, LVED) of GST/β1-ECII-immunized un-treated (black circles) versus GST/β1-ECII-immunized animals treated with the indicated various cyclopeptides (see legend) as determined by echocardiography (echocardiographic system: Visual Sonics, Vevo 770 (version V2.2.3), equipped with a 15-17.5 MHz transducer), whereby LVES/LVED is left ventricular end-systolic diameter/left ventricular end-diastolic diameter.
FIG. 17.B is a similar diagram showing the time course (month 0 to 20) of the internal end-systolic and end-diastolic left ventricular diameters (LVES, LVED) of GST/β1-ECII-immunized untreated (black circles) versus GST/β1-ECII-immunized animals, treated with different concentrations of the 18AA Cys/Ser cyclopeptide mutant (see legend).
FIG. 19A is a diagram depicting the time course (month 0 to 20) of the “Cardiac index” (CI) in ml/min/g (body weight) as determined by echocardiography (echocardiographic system see legend to FIG. 17a.).
(§1) The latter doses were almost equally efficient in terms of both, neutralization of circulating receptor antibodies (FIGS. 16b and c), and reversal of antibody-induced cardiomyopathic features (FIGS. 17b, 19b, 20, and 21b).

[3] = test system: anti-beta1-receptor antibody-titers; experiment: in vivo therapy study in long term immunized cardiomyopathic rats: antibody-titers by ELISA; set-up: species or system rat; settings: for in vivo blocking capacity after the first i.v. injection: sera 18-20 hours after injection (FIGS. 14 and 15)
Description: FIG. 16A is a diagram resuming the in vivo blocking effect of both 25AA and 18AA cyclopeptide mutants with a Gln closure site, determined after a total of nine intravenous (i.v.) in-jections of 1.0 mg/kg body weight (Bw) of the indicated peptides into immunized antibody-positive rats. Sera were drawn before and 18-20 hours after i.v. injection of the various peptides every 4 weeks (abscissa: time in months of treatment) and assayed for reactivity by ELISA using the 3 Cys-containing linear 25AA Cys/Cys-peptide as an antigen.
FIG. 16B is a diagram resuming the in vivo blocking effect of various concentrations of 18AA cyclopeptide mutants with a Gln closure site, determined after a total of nine intra-venous (i.v.) injections of 0.25, 1.0, 2.0, and 4.0 mg/kg body weight (Bw) into immunized antibody-positive rats, irrespective of the cyclopeptide “responder-state” of individual animals. Sera were drawn before and 18-20 hours after i.v. injection of the various peptides every 4 weeks (abscissa: time in months), and assayed for reactivity by ELISA using the 3 Cys-containing linear 25AA Cys/Cys-peptide as an antigen.
Sera were drawn as described above and assayed for reactivity by ELISA using the 3 Cys-containing linear 25AA Cys/Cys-peptide as an antigen.
Moreover, the in vivo blocking effects of therapeutically used 25AA and 18AA Cys/Ser cyclo-peptide mutants, the 18AA Ser/Cys mutant (Gln-)cyclopeptide, and a mutated linear 18AA Cys/Ser peptide were assessed after a first intravenous (i.v.) dose (i.e., 1.0 mg/kg body weight (Bw)) of each construct injected into long term immunized anti-beta1-ECII antibody-positive rats, yet presenting a cardiomyopathic phenotype (after nine months of 1× monthly immunization with the beta1-ECII/GST antigen; FIGS. 14-16 and 17). Sera were drawn 18-20 hours after the first i.v. injection of the various constructions and assayed for reactivity by ELISA using the 3 Cys-containing linear 25AA Cys/Cys-peptide as an antigen.
as §1
In order to generate anti-β1-receptor antibodies the animals were immunized with a fusion protein containing bacterial glutathione-S-transferase and the sequence of the second extra-cellular loop of the human β1-adrenergic receptor (GST/β1-ECII). Before treatment of the animals with mutated cyclopeptides according to the present invention, progressive dilated immune cardiomyopathy is observed after 6 to 8 months of regular immunization every four weeks (FIG. 17). All of the immunized animals developed high titers of stimulatory anti-β1-ECII antibodies. The specific anti-β1-ECII titer reached a maximum between 6 and 8 months of continuously boosting the animals every 4 weeks, whereas NaCl-injected control animals developed no specific receptor antibodies (FIG. 18).
Such immunized animals were used for the application of mutant cyclopeptides according to the present invention. The in-vivo blocking effect of both 25AA and 18AA Cys/Ser mutant cyclopeptides (with a Gln closure site) were determined after a first intravenous (i.v.) injection of 1.0 mg/kg body weight (Bw) (for 18AA Cys/Ser cyclopeptides also 0.25 mg/kg/Bw) into immunized antibody-positive rats. Sera were drawn 18-20 hours after i.v. injection of the different peptides and assayed for reactivity by ELISA using the 3 Cys-containing linear 25AA Cys/Cys-peptide as an antigen.

[4] = 0.25 mg/kg Bw, repeated injections every 4 weeks
[5] = 4.0 mg/kg body weight, repeated injections every 4 weeks

Substance: Cyclo-Ala-Asp-Glu-Ala-Arg-Arg-Cys-Tyr-Asn-Asp-Pro-Lys-Cys-Ser-Asp-Phe-Val-Gln (cyclo(ADEARRCYNDPKCSDFVQ); disulfide 7-13; SMILES CC(C)[C@@H]1NC(=O)[C@H](Cc2ccccc2)NC(=O)[C@H](CC(=O)O)NC(=O)[C@H](CO)NC(=O)[C@@H]2CSSC[C@H](NC(=O)[C@H](CCCNC(=N)N)NC(=O)[C@H](CCCNC(=N)N)NC(=O)[C@H](C)NC(=O)[C@H](CCC(=O)O)NC(=O)[C@H](CC(=O)O)NC(=O)[C@H](C)NC(=O)[C@H](CCC(N)=O)NC1=O)C(=O)N[C@@H](Cc1ccc(O)cc1)C(=O)N[C@@H](CC(N)=O)C(=O)N[C@@H](CC(=O)O)C(=O)N1CCC[C@H]1C(=O)N[C@@H](CCCCN)C(=O)N2) [18AA Cys/Ser mutant (Gln-)cyclopeptide, disulphide bond Cys7-Cys13, ring closure Ala1-Gln18]
- number of specific anti-beta1-ECII antibody-secreting cells (ASC) in spleen and bone marrow [1]: significant decrease
- achieved cardioprotective effect compared with 1.0 or 2.0 mg/kg [2, 4]: clearly less efficient
- cardioprotective effects compared with 1.0 or 2.0 mg/kg [2, 5]: did not result in higher efficiency
- reversal of antibody-induced cardiomyopathic features ([2]; 1.0 or 2.0 mg/kg Bw (FIGS. 17B, 19B, 20, 21B)): best cardioprotection
- number of responders (after 7 injections remaining antibody level equal or inferior to 80% of titer at start of therapy) ([3]; 0.25 mg/kg Bw (FIG. 16C)): 3/4
- achieved decrease in circulating receptor-antibodies compared with 1.0 or 2.0 mg/kg [3, 4]: clearly less efficient
- in vivo blocking capacity after the first i.v. injection ([3]; 0.25 mg/kg body weight): no relevant decrease in receptor-antibodies
- number of responders (after 7 injections remaining antibody level equal or inferior to 80% of titer at start of therapy) ([3]; 1.0 mg/kg Bw (FIG. 16C)): 16/20
- initial transient increase in antibody-titers ([3]; 1.0 mg/kg Bw (FIGS. 16a and b)): did not occur
- in vivo blocking capacity after the first i.v. injection ([3]; 1 mg/kg Bw, listed as 18AA Cys/Ser cyclopeptide mutant): largely superior to that of the linear 18AA Cys/Ser peptide mutant
- in vivo blocking capacity after the first i.v. injection ([3]; 1 mg/kg Bw, listed as 18AA Cys/Ser cyclopeptide mutants): higher in vivo blocking capacity
- absolute decrease in antibody-titers after 9 months of treatment, of the titer at start of therapy ([3]; 1.0 mg/kg i.v. every 4 weeks): −59±14%
- initial transient increase in antibody-titers ([3]; 2.0 mg/kg Bw): did not occur
- number of responders (after 7 injections remaining antibody level equal or inferior to 80% of titer at start of therapy) ([3]; 2.0 mg/kg Bw (FIG. 16C)): 2/5
- absolute decrease in antibody-titers after 9 months of treatment, of the titer at start of therapy ([3]; 2.0 mg/kg i.v. every 4 weeks): −59±12%
- number of responders (after 7 injections remaining antibody level equal or inferior to 80% of titer at start of therapy) ([3]; 4.0 mg/kg Bw (FIG. 16C)): 6/9
- initial transient increase in antibody-titers ([3]; 4.0 mg/kg Bw (high dose)): transient increase in antibody-titers
- antibody scavenging capacity compared with 1.0 or 2.0 mg/kg [3, 5]: did not result in higher efficiency
- absolute decrease in antibody-titers after 9 months of treatment, of the titer at start of therapy ([3]; 4.0 mg/kg i.v. every 4 weeks): −39±14%
